Source: patent US8252737B2, “Antimicrobial peptides and methods of use” (priority 2004, dated 2012)
≈ marks a conversion by molar mass, not a printed value.

Tests used:
gram-positive bacteria = test system: gram-positive bacteria
How it was run: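 Microtiter dilution in LB no-salt or Mueller-Hinton medium, with BHI for Pseudomonas aeruginosa clinical isolates (final inoculum 1×10^6 CFU/ml). Plates were incubated 24 hours at 37° C. MIC was the lowest peptide concentration inhibiting growth.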

human erythrocytes = experiment: Hemolytic activity (MHC), Protocol A, 12 hours; settings: for minimal hemolytic concentration (MHC): incubation for 12 hours at 37° C. (Tables 7 and 8); for MHC: minimal hemolytic concentration on human red blood cells (hRBC), Table 9
How it was run: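 Twofold peptide dilutions incubated with 1% human erythrocytes in phosphate-buffered saline at 37 °C for 12 h; hemoglobin release read spectrophotometrically at 562 nm, or at 570 nm in a repeat. Hemolytic titer taken as the highest 2-fold dilution still releasing hemoglobin, versus peptide-free erythrocytes.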

gram-negative bacteria = experiment: MIC, microtiter dilution, Gram-negative bacteria (geometric mean of 6 strains); assay type: cell-based; settings: for MIC (μg/ml) Gram-negative: geometric mean MIC, Table 9
How it was run: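 Microtiter broth dilution in LB no-salt or Mueller-Hinton broth (brain heart infusion for P. aeruginosa clinical isolates, inoculum 1×10^6 CFU/ml); overnight 37° C. cultures diluted, plates incubated 37° C. 24 h. MIC is lowest peptide concentration inhibiting growth; value is geometric mean over 6 strains.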

[1] = Circular dichroism spectroscopy of helical structure (benign buffer and 50% TFE); assay type: physicochemical
How it was run: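 Peptide CD spectra at 25 °C, 190–250 nm, in benign buffer (50 mM KH2PO4/K2HPO4, 100 mM KCl, pH 7) and in the same buffer with 50% TFE. Samples were a 10-fold dilution of ~500 μM stock. Mean residue molar ellipticity at 222 nm gave relative α-helicity.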

[2] = 25° C., relative to NAL in 50% TFE
[3] = 25° C., benign buffer (100 mM KCl, 50 mM PO4 pH 7.0)
[4] = 25° C., benign buffer diluted 1:1 (v/v) with TFE
[5] = 25° C., benign buffer, relative to NAL in 50% TFE

Molecule	MIC (μg/ml) GM (gram-positive bacteria)	MIC (μg/ml) Gram-positive (gram-positive bacteria)	geometric mean MIC against gram-positive bacteria (gram-positive bacteria)	minimal hemolytic concentration (MHC) (human erythrocytes)	MHC (human erythrocytes)	MIC (μg/ml) Gram-negative (gram-negative bacteria)	MIC (μg/ml) GM (gram-negative bacteria; geometric mean of MIC values from all 6 Gram-negative strains of Table 11)	[θ]222 Benign ([1]; 5° C., 100 mM KCl, 50 mM PO4 pH 7.4)	% helix 50% TFE ([1]; 5° C., relative to D-V681 in 50% TFE)	[θ]222 50% TFE ([1]; 5° C., benign buffer pH 7.4 containing 50% TFE)	% helix Benign ([1]; 5° C., pH 7.4 benign, relative to D-V681 in 50% TFE)	% helix 50% TFE [1, 2]	[θ]222 Benign [1, 3]	[θ]222 50% TFE [1, 4]	% helix Benign [1, 5]
CC[C@H](C)[C@H](NC(=O)[C@H](C)NC(=O)[C@H](CCCCN)NC(=O)[C@H](CC(C)C)NC(=O)[C@H](C)NC(=O)[C@@H](NC(=O)[C@H](Cc1c[nH]cn1)NC(=O)[C@H](CC(C)C)NC(=O)[C@@H](NC(=O)[C@@H](NC(=O)[C@H](CCCCN)NC(=O)[C@@H](NC(=O)[C@H](C)NC(=O)[C@H](CO)NC(=O)[C@H](CCCCN)NC(=O)[C@H](Cc1ccccc1)NC(=O)[C@@H](NC(=O)[C@H](CCCCN)NC(=O)[C@H](CC(C)C)NC(=O)[C@H](Cc1ccccc1)NC(=O)[C@H](CO)NC(=O)[C@H](CCCCN)NC(=O)[C@H](Cc1c[nH]c2ccccc12)NC(=O)[C@H](CCCCN)NC(C)=O)[C@@H](C)O)C(C)C)[C@@H](C)O)C(C)C)[C@@H](C)O)C(=O)N[C@@H](CO)C(=O)N[C@@H](CO)C(N)=O [Peptide V681, reference compound]	4.4 µg/mL (≈ 1.49 µM)	6.3 µg/mL (≈ 2.13 µM)	6.3 µg/mL	15.6 µg/mL	15.6 µg/mL	8.8 µg/mL (≈ 2.97 µM)	5.0 µg/mL (≈ 1.69 µM)	−13000 deg · cm^2 · dmol^−1	99%	−27950 deg · cm^2 · dmol^−1	46%	94%	−12,900 deg · cm^2 · dmol^−1	−27,300 deg · cm^2 · dmol^−1	45%
Ac-KWKSFLKTFKSAGKTVLHTALKAISS-NH2 [NG]		7.4 µg/mL		125 µg/mL	125.0 µg/mL	4.1 µg/mL						84%		−24,350 deg · cm^2 · dmol^−1	8%
Ac-KWKSFLKTFKSASKTVLHTALKAISS-NH2 [NSL]		7.4 µg/mL		125 µg/mL	125.0 µg/mL	4.2 µg/mL						95%	−1,300 deg · cm^2 · dmol^−1	−27,550 deg · cm^2 · dmol^−1	4%
